Assay results taken from a melting point compilation (Tetko et al.; mined from patent text by program, amines drawn as free bases though some values may be those of a salt).

SMILES | melting point [°C]
CC(=O)Oc1ccc(C(C[N+](=O)[O-])SC(=S)N(C)C)cc1 (stereo not given) | 116 to 118
CC(C)NC(=S)Nc1ccc(Cl)c(-c2ccnc3c(C(=O)c4cccs4)cnn23)c1 | 194 to 195
COC(=O)C(C)OC(=O)Cc1cc(Oc2ccc(C(F)(F)F)cc2Cl)ccc1[N+](=O)[O-] (stereo not given) | 72.1 to 72.9
CCN1C=C2C=C(S)N=CN2N1 | 251 to 254
CCNC(=NS(=O)(=O)c1cccc(C#N)c1)N1CC(CC)C=N1 (stereo not given) | 164 to 168
CCOC(=O)c1ccc(C=CC2(O)CN3CCC2CC3)cc1 (stereo not given) | 160 to 162
O=S(=O)(Cl)c1ccc2scnc2c1 | 110 to 112
Cc1cc(C)c(NC(=S)C2(C)CCc3c(C)c(O)c(C)c(C)c3O2)cc1C (stereo not given) | 124 to 125
CC(OCCc1ccc([N+](=O)[O-])cc1)OC1C(O)C(CO)OC1n1ccc(=O)[nH]c1=O (stereo not given) | 162
Nc1cccc(Oc2ccc(C(=O)c3cccc(C(=O)c4ccc(Oc5cccc(N)c5)cc4)c3)cc2)c1 | 147 to 149
Cc1nc(CCO)c2c(n1)N(N)C(=O)C(C)(C)O2 | 168 to 170
NC(=O)CCCCCNC(N)=O | 208
CC(=O)ON1C(C)(C)CC(OC(=O)CCCCCCCCC(=O)OC2CC(C)(C)N(OC(C)=O)C(C)(C)C2)CC1(C)C | 81 to 94
Cc1nc(-c2cc(Cl)ccc2Cl)n2c1nnc1ccc(-c3cc(Cl)ccc3Cl)cc12 | 190 to 193
CCCc1nccn1N=Cc1cc(C(C)(C)C)c(O)c(C(C)(C)C)c1 | 160 to 161
OC(CCc1c[nH]cn1)(c1ccccc1)c1ccccc1 | 189 to 191
N#CCN1CCN(c2cccc(Cl)c2Cl)CC1 | 89 to 92
Cn1cc(CO)c(=O)c2cc(F)ccc21 | 209 to 212
Cn1cnc2ncnn2c1=S | 238 to 240
CCON=C(CC)C1=C(O)CC(c2ccc(NC(=O)OC)cc2)CC1=O (stereo not given) | 160 to 161

SMILES | melting point [°C]
CC(=O)OC1=CCC2C3CCC4CCC(OC(C)=O)CC4(C)C3CCC12C (stereo not given) | 133 to 134
O=[N+]([O-])c1ccc(-n2ccnc2)cc1Sc1cccc2cnccc12 | 178 to 188
COc1ccc(-c2cc(=O)n(C)c(=O)n2C)cc1OC | 118 to 120
CN1CC(C(=O)N(Cc2ccc(F)cc2)OCC(=O)O)=C(O)C1=O | 147 to 150
Cc1ccc(CCOc2ncnc3c(F)cccc23)cc1 | 72 to 74
CC12CCC3C(CC=C4C=C(N5CCCC5)CCC43C)C1CCC2=O (stereo not given) | 217 to 220
COc1ccc2[nH]c([S+]([O-])Cc3ncc(C)c(OC)c3C)nc2n1 (stereo not given) | 224 to 226
CC(=O)SC(CC(=S)c1ccc(-c2ccccc2)cc1)C(=O)O (stereo not given) | 116 to 118
COC(=O)Nc1nc(C)c(-c2nc3ccccc3c(=O)n2-c2ccccc2Cl)s1 | 243 to 245
NC(=O)c1ccc(C(=O)O)c(N)c1 | 276 to 278
CC(CO)(CO)C(=O)OCc1ccccc1 | 71.6 to 72.8
Oc1ccc(-c2ncc3ncc(-c4ccsc4)cc3n2)cc1 | 248 to 250
CCCCCCC1C(=O)CCC1C(=O)O (stereo not given) | 73 to 74
COc1ccc2c(c1C)CCc1ccc(-c3cccnc3)cc1C21N=C(N)N(C)C1=O (stereo not given) | 235 to 239
CS(=O)(=O)c1ccc(-c2cc(C(=O)CCCO[N+](=O)[O-])nn2-c2ccc(C(F)(F)F)cc2)cc1 | 152 to 154
C=CCOc1ccc(C2=NNC(=O)CC2)cc1 | 130 to 132
CCCN(CCC)CCc1cccc2[nH]c(=O)[nH]c12 | 189 to 192
CCCCc1cc(SCc2ccc(-c3ccc(C(F)(F)F)cc3)cc2)ccc1OCC(=O)O | 155 to 157
CCNC(=O)NCCCNn1c(COCC)nc2c(N)nc3c(c21)CCCC3 | 189 to 191

Other lines, results leading:

melting point [°C] | SMILES
170 to 172 | Nc1cc(CCC(=O)N(c2ccccc2)c2ccccc2)ccc1O
247 to 248 | Nc1nc2cccnc2c2c1nc(CO)n2Cc1cc(-c2ccc(F)cc2)no1
128 to 131 | O=C(O)COc1c(-c2cccc(Cl)c2)cc(C(=O)NCCCCCCCCOCc2ccc(Cl)cc2)cc1-c1cccc(Cl)c1
260 | CC(=O)NCCCn1cc(-c2cc3nccnc3[nH]2)c2ccccc21
154 to 155 | COC(=O)[C@H]1Cc2c([nH]c3ccccc23)[C@@H](c2ccc3c(c2)OCO3)N1
173 to 174 | Cc1c(C(N)=O)c2ccccc2n2c(N3CCCC3)nc(-c3noc(C(C)C)n3)c12
> 200 | Cc1nc(N2CCN(Cc3cc(F)cc(F)c3)C2=O)sc1C(N)=O
234 to 236 | Cc1cccc(C(=O)Nc2cccc3c2C(=O)N(C2CCC(=O)NC2=O)C3=O)c1 (stereo not given)
232 | O=C(NNC(=O)c1ccncc1)Nc1cccc2c1C(=O)c1c-2n[nH]c1-c1ccc(N2CCNCC2)cc1
97 to 99.5 | CC(C)(C)OC(=O)N(C(=O)OC(C)(C)C)C(Cc1c[nH]cn1)C(=O)OCc1ccccc1 (stereo not given)
195 to 196 | CN1CCN(c2cccc3c2C[C@H](NC(=O)c2ccccc2)CC3)CC1
200 to 203 | COc1ccc(-c2csc(Nc3cc4ccccc4cn3)n2)cc1OC
192 to 193 | COc1c(Cl)cc2c(N)nc(N3CCN(C(=O)C4CCCO4)CC3)nc2c1OC (stereo not given)
195 to 196 | CNC(=O)c1cc(-c2ccc(OC)cc2)nn(CC(=O)NCc2ccccn2)c1=O
161 to 162 | CN1CCN(c2ccc(F)cc2C=C2CCCN(c3ccc(Cl)c(Cl)c3)C2=O)CC1
151 to 152 | O=C(O)CCCCOc1ccc2oc3ccccc3c(=O)c2c1

melting point [°C] | SMILES
188 to 190 | CC(=O)NC[C@H]1CN(c2cc(F)c(N3CCC(n4nnc(N5CCN(Cc6ccccc6)CC5)n4)CC3)c(F)c2)C(=O)O1
115 to 136 | O=C(CCCC(Cc1c[nH]c2ccccc12)(NC(=O)OC1C2CC3CC(C2)CC1C3)C(=O)NCCc1ccccc1)OCc1ccccc1 (stereo not given)
157 | O=C1C(c2ccccc2)=C(c2ccc(Cl)cc2)C(=O)N1c1ccc(Cl)cc1
142 to 143 | C(=C\c1nc(COc2ccc(CCCn3ccnn3)cc2)co1)/c1ccccc1
191 to 192 | CNS(=O)(=O)c1ccc(Nc2cc(N3CCCCC3)cc(-c3ccc(F)cc3)n2)cc1
141 to 142 | N#CN=C(Cc1ccccc1F)NC1CCc2ccccc21 (stereo not given)
296 to 301 | O=C1C2=C(NC(=O)C3(N2)OCCO3)c2ccccc21
81 to 83 | C=Cc1c(C(=O)OC)nc(-c2ccc(Cl)cc2)c(F)c1N
213 to 214 | NC(=O)C1=CCCc2cc(Sc3cccc(F)c3)cc(F)c21
270 to 271 | O=C(Nc1cccnc1)N1CCN(c2nccc(-c3cc(F)ccc3F)n2)CC1
101 to 103 | COc1cc(C(=O)C(=O)N2C3CCCC2C(=O)N(CCCCc2ccccc2)C3=O)cc(OC)c1OC
185 | NC(=O)c1ccc(N2CCN(CCCC3OCCc4ccccc43)CC2)cc1 (racemic)
192 to 194 | O=C1NC(=O)C(Cc2ccc(OCCN3C(=O)c4ccccc4C3=O)cc2)S1 (stereo not given)
292 to 294 | CC1(n2cc(C(=O)O)c(=O)c3cc(F)c(F)c(F)c32)CC1
90 | COc1ccc(C(=O)c2cc(F)cc(F)c2)cc1
